The text below walks through data of PubChem BioAssay AID248 (DTP/NCI, 2004).

Molecules are shown by their SMILES. Inconclusive results and toxic doses are left out.

The subject of the experiment is L1210 leukemia ip in BDF1 mice, survival T/C. Briefly: NCI In Vivo Anticancer Drug Screen. Data for tumor model L1210 Leukemia (intraperitoneal) in B6D2F1 (BDF1) mice. The following applies: endpoint: mean survival time, higher = longer survival. The method, boiled down: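 Read-out is survival time, reported as the treated-group measurement over the vehicle-control measurement.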

Where [1] appears, read: dose: 100.0 mg/kg/injection, schedule: Q04DX002 (ip), vehicle: Klucel (hydroxypropylcellulose) (HPC).
Setting [2] is: dose: 100.0 mg/kg/injection, schedule: Q01DX001 (ip), vehicle: other.

`O=C(Nc1cccc(C(=O)Nc2ccc(C3=NCCN3)cc2)c1)c1ccc(C2=NCCN2)cc1`: the T/C is, setting by setting: (dose: 15.0 mg/kg/injection, schedule: Q01DX Z (ip), vehicle: carboxymethylcellulose (CMC)) 96 % of control; (dose: 15.0 mg/kg/injection, schedule: Q01DX Z (sc), vehicle: saline) 120 % of control; (dose: 30.0 mg/kg/injection, schedule: Q01DX Z (ip), vehicle: carboxymethylcellulose (CMC)) 120 % of control; (dose: 60.0 mg/kg/injection, schedule: Q01DX Z (sc), vehicle: saline) 109 % of control; (dose: 62.5 mg/kg/injection, schedule: Q01DX010 (oral), vehicle: saline) 104 % of control; (dose: 88.0 mg/kg/injection, schedule: Q01DX007 (oral), vehicle: carboxymethylcellulose (CMC)) 101 % of control. For the same molecule, the T/C (dose: 120.0 mg/kg/injection, schedule: Q01DX Z (ip), vehicle: carboxymethylcellulose (CMC)) is 185 % of control; the T/C (dose: 120.0 mg/kg/injection, schedule: Q01DX Z (sc), vehicle: saline) is 230 % of control; the T/C (dose: 125.0 mg/kg/injection, schedule: Q01DX010 (oral), vehicle: saline) is 104 % of control; the T/C (dose: 175.0 mg/kg/injection, schedule: Q01DX007 (oral), vehicle: carboxymethylcellulose (CMC)) is 97 % of control; the T/C (dose: 250.0 mg/kg/injection, schedule: Q01DX010 (oral), vehicle: saline) is 103 % of control; the T/C (dose: 350.0 mg/kg/injection, schedule: Q01DX007 (oral), vehicle: carboxymethylcellulose (CMC)) is 105 % of control. Also, the T/C (dose: 500.0 mg/kg/injection, schedule: Q01DX010 (oral), vehicle: saline) was 106 % of control and the T/C (dose: 700.0 mg/kg/injection, schedule: Q01DX007 (oral), vehicle: carboxymethylcellulose (CMC)) is 105 % of control.

For the molecule `Cc1[nH]c(=O)[nH]c(=O)c1CCO`, the T/C by setting is: (dose: 100.0 mg/kg/injection, schedule: Q01DX001 (ip), vehicle: saline) 96 % of control; (dose: 200.0 mg/kg/injection, schedule: Q01DX001 (ip), vehicle: saline) 102 % of control; (dose: 400.0 mg/kg/injection, schedule: Q01DX001 (ip), vehicle: saline) 100 % of control.

Take `CC(=O)Oc1c(N)c(C)cc(C)c1F`: the T/C runs as follows: (dose: 6.0 mg/kg/injection, schedule: Q01DX001 (ip), vehicle: Klucel (hydroxypropylcellulose) (HPC)) 92 % of control; (dose: 12.0 mg/kg/injection, schedule: Q01DX001 (ip), vehicle: Klucel (hydroxypropylcellulose) (HPC)) 92 % of control; (dose: 25.0 mg/kg/injection, schedule: Q01DX001 (ip), vehicle: Klucel (hydroxypropylcellulose) (HPC)) 110 % of control.

Take `COC(=O)C1(C)CCCC2(C)C1CCC13OCC(CC21)C1(C(C)C)OC31` (configuration not stated): the T/C runs as follows: (dose: 100.0 mg/kg/injection, schedule: Q01DX009 (ip), vehicle: saline with Tween-80) 96 % of control; (dose: 200.0 mg/kg/injection, schedule: Q01DX009 (ip), vehicle: saline with Tween-80) 93 % of control; (dose: 400.0 mg/kg/injection, schedule: Q01DX009 (ip), vehicle: saline with Tween-80) 95 % of control.

Regarding `O=C(c1ccccc1)C1OC1c1ccc([N+](=O)[O-])cc1` (configuration not stated), the T/C reads like this: (dose: 100.0 mg/kg/injection, schedule: Q01DX001 (ip), vehicle: saline with Tween-80) 91 % of control; (dose: 100.0 mg/kg/injection, schedule: Q04DX003 (ip), vehicle: saline with Tween-80) 100 % of control; (dose: 200.0 mg/kg/injection, schedule: Q01DX001 (ip), vehicle: saline with Tween-80) 88 % of control; (dose: 200.0 mg/kg/injection, schedule: Q04DX003 (ip), vehicle: saline with Tween-80) 103 % of control; (dose: 400.0 mg/kg/injection, schedule: Q01DX001 (ip), vehicle: saline with Tween-80) 88 % of control; (dose: 400.0 mg/kg/injection, schedule: Q04DX003 (ip), vehicle: saline with Tween-80) 100 % of control.

`O=C(COc1cc(Cl)c(Cl)cc1Cl)OCCOc1cc(Cl)c(Cl)cc1Cl`: the T/C was 97 % of control (dose: 7.5 mg/kg/injection, schedule: Q01DX001 (ip), vehicle: saline); 95 % of control (dose: 15.0 mg/kg/injection, schedule: Q01DX001 (ip), vehicle: saline); 93 % of control (dose: 30.0 mg/kg/injection, schedule: Q01DX001 (ip), vehicle: saline).

In the case of `CC(C)(C)C12OC1C(=O)C1(C(C)(C)C)OC1C2=O` (configuration not stated), the T/C runs as follows: (dose: 100.0 mg/kg/injection, schedule: Q01DX009 (ip), vehicle: Klucel (hydroxypropylcellulose) (HPC)) 97 % of control; (dose: 200.0 mg/kg/injection, schedule: Q01DX009 (ip), vehicle: Klucel (hydroxypropylcellulose) (HPC)) 103 % of control; (dose: 400.0 mg/kg/injection, schedule: Q01DX009 (ip), vehicle: Klucel (hydroxypropylcellulose) (HPC)) 105 % of control.

`O=C(N/N=C/c1cccc2ccccc12)c1ccc(O)cc1`: the T/C is, setting by setting: under setting [1], 100 % of control; (dose: 200.0 mg/kg/injection, schedule: Q04DX002 (ip), vehicle: Klucel (hydroxypropylcellulose) (HPC)) 100 % of control; (dose: 400.0 mg/kg/injection, schedule: Q04DX002 (ip), vehicle: Klucel (hydroxypropylcellulose) (HPC)) 103 % of control.

`Cc1ccc(N(CCCl)CCCl)cc1NC(=O)c1ccccc1`: the T/C by setting is: under setting [2], 102 % of control; (dose: 200.0 mg/kg/injection, schedule: Q01DX001 (ip), vehicle: other) 102 % of control; (dose: 400.0 mg/kg/injection, schedule: Q01DX001 (ip), vehicle: other) 109 % of control.

As for `NN=C(NN)NN`, the T/C (dose: 100.0 mg/kg/injection, schedule: Q04DX002 (ip), vehicle: saline) was 98 % of control; the T/C (dose: 200.0 mg/kg/injection, schedule: Q04DX002 (ip), vehicle: saline) is 104 % of control; the T/C (dose: 400.0 mg/kg/injection, schedule: Q04DX002 (ip), vehicle: saline) is 104 % of control.

Take `Nc1ncnc2c1nnn2CCCCC(N)C(=O)O` (configuration not stated): the T/C was 111 % of control (dose: 100.0 mg/kg/injection, schedule: Q04DX003 (ip), vehicle: saline); 106 % of control (dose: 200.0 mg/kg/injection, schedule: Q04DX003 (ip), vehicle: saline); 95 % of control (dose: 400.0 mg/kg/injection, schedule: Q04DX003 (ip), vehicle: saline).

In the case of `Oc1ccccc1OB(Oc1ccccc1O)N(CCCl)CCCl`, the T/C under setting [2] is 111 % of control.

In the case of `c1ccc(C(c2ccccc2)n2cc[n+](C(c3ccccc3)c3ccccc3)c2)cc1`, the T/C was 96 % of control (dose: 12.5 mg/kg/injection, schedule: Q04DX002 (ip), vehicle: gum acacia) and 114 % of control (dose: 25.0 mg/kg/injection, schedule: Q04DX002 (ip), vehicle: gum acacia).

Turning to `CC(C)CCc1c(N)nc(N)nc1N`, the T/C was 93 % of control (dose: 25.0 mg/kg/injection, schedule: Q04DX003 (ip), vehicle: Klucel (hydroxypropylcellulose) (HPC)) and 96 % of control (dose: 50.0 mg/kg/injection, schedule: Q04DX003 (ip), vehicle: Klucel (hydroxypropylcellulose) (HPC)).

Take `CC(C)(C)CNC(=S)Nc1ccccc1`: the T/C (dose: 9.5 mg/kg/injection, schedule: Q01DX001 (ip), vehicle: other) was 98 % of control; the T/C (dose: 19.0 mg/kg/injection, schedule: Q01DX001 (ip), vehicle: other) was 102 % of control; the T/C (dose: 38.0 mg/kg/injection, schedule: Q01DX001 (ip), vehicle: other) is 104 % of control; the T/C (dose: 75.0 mg/kg/injection, schedule: Q01DX001 (ip), vehicle: other) is 90 % of control.

On to `CCCCSc1nc(NC(C)C)nc(NC(C)C)n1`, for which the T/C runs as follows: (dose: 100.0 mg/kg/injection, schedule: Q04DX002 (sc), vehicle: olive oil, sesame oil, peanut oil) 118 % of control; (dose: 200.0 mg/kg/injection, schedule: Q04DX002 (sc), vehicle: olive oil, sesame oil, peanut oil) 115 % of control; (dose: 400.0 mg/kg/injection, schedule: Q04DX002 (sc), vehicle: olive oil, sesame oil, peanut oil) 101 % of control.

As for `CCOC(=O)CC1=NCCc2cc(OC)c(OC)cc21`, the T/C (dose: 25.0 mg/kg/injection, schedule: Q04DX002 (ip), vehicle: Klucel (hydroxypropylcellulose) (HPC)) is 102 % of control; the T/C (dose: 50.0 mg/kg/injection, schedule: Q04DX002 (ip), vehicle: Klucel (hydroxypropylcellulose) (HPC)) was 99 % of control; the T/C under setting [1] was 96 % of control.
